The results in this text go back to article PMC5862592, “CDK8/19 inhibition induces premature G1/S transition and ATR-dependent cell death in prostate cancer cells” (Oncotarget, 2018).

Like-named read-outs stand apart in the source and are kept apart here.

Experiment in all cases: biochemical
Holding throughout (design): KINOMEscan active site-directed competition binding assay (DiscoveRx), 456 kinases, per cent of control at 300 nM
Common to all, as to details: read-out: Percent of Control (%)

The target of test [1] is T1, ABL1(E255K)-phosphorylated (Homo sapiens, UniProt P00519, E255K).
T1 construct: phosphorylated
Here is the method:
(§1) Kinase selectivity of T-474 and T-418 was evaluated at 300 nmol/L using a panel of 456 kinases at DiscoveRx (KINOMEscan). The platform employs an active site-directed competition binding assay to quantitatively measure interactions between test compounds and kinases. […] In VCaP prostate cancer cells, treatment with T-474 or T-418 suppressed the phosphorylation of the known CDK8 substrate STAT1 at Ser727 both in the absence and in the presence of IFN-γ (Figure 1B), which stimulates CDK8-mediated STAT1 phosphorylation.

The next test concerns the target BMX (Homo sapiens, UniProt P51813). Here is the method: as §1
Another test has as its target CAMK2A (Homo sapiens, UniProt Q9UQM7). Here is the method: as §1
A further test concerns the target CAMK4 (Homo sapiens, UniProt Q16566). Here is the method:
as §1

Another test has as its target CDK2 (Homo sapiens, UniProt P24941). Here is the method:
as §1

The target of the next test is CDK8 (Homo sapiens, UniProt P49336). Here is the method: as §1
Another test deals with DDR2 (Homo sapiens, UniProt Q16832). Here is the method:
as §1

In another test the target is LATS2 (Homo sapiens, UniProt Q9NRM7). Here is the method:
as §1

A further test has as its target LCK (Homo sapiens, UniProt P06239). Here is the method: as §1
Another test has as its target MAP3K3 (Homo sapiens, UniProt Q99759). Here is the method: as §1
The target in a further test is T2, MEK3 (Homo sapiens, UniProt P46734).
T2 construct: gene MAP2K3
Here is the method:
as §1

In another test the target is T3, MEK5 (Homo sapiens, UniProt Q13163).
T3 construct: gene MAP2K5
Here is the method: as §1

In another test the target is NEK10 (Homo sapiens, UniProt Q6ZWH5). Here is the method:
as §1

A further test has as its target PAK3 (Homo sapiens, UniProt O75914). Here is the method:
as §1

The target in a further test is T4, PFCDPK1(P.falciparum) (Plasmodium falciparum, UniProt P62344).
T4 construct: gene CDPK1
Here is the method: as §1

In another test the target is PIK3CA(M1043I) (Homo sapiens, UniProt P42336, M1043I). Here is the method: as §1
Sequence of PIK3CA(M1043I) (P42336 whole entry M1043I): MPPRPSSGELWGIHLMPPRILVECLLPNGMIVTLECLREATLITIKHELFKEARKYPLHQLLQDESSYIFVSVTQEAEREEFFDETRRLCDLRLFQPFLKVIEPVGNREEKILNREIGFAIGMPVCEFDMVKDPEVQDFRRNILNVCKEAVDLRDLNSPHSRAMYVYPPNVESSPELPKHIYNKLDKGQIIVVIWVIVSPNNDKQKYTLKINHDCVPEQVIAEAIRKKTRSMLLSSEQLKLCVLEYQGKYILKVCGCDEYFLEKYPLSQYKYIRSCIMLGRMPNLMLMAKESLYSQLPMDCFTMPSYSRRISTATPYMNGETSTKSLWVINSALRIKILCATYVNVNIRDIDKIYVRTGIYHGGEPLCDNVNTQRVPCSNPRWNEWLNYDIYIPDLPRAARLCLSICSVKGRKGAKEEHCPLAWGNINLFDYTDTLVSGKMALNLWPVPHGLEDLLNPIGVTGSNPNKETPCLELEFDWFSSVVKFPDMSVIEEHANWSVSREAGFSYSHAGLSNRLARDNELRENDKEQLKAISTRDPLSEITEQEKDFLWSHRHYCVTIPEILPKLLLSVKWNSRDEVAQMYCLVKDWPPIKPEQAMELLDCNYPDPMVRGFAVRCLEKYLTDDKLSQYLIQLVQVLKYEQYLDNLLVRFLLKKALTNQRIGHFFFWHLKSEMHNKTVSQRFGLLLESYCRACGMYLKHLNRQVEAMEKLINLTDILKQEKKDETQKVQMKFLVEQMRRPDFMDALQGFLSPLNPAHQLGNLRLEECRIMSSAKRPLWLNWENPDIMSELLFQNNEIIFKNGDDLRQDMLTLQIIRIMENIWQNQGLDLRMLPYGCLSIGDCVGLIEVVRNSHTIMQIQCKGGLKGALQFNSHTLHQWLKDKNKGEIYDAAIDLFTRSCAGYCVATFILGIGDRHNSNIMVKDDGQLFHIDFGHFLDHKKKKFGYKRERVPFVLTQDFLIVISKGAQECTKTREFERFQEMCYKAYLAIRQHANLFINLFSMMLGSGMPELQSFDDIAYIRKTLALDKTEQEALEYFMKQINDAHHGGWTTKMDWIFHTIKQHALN
Another test addresses PIK3CA(Q546K) (Homo sapiens, UniProt P42336, Q546K). Here is the method: as §1
The next test has as its target PRKCI (Homo sapiens, UniProt P41743). Here is the method: as §1
Another test concerns the target PRKG2 (Homo sapiens, UniProt Q13237). Here is the method:
as §1

In test [2] the target is T5, RPS6KA4(Kin.Dom.2-C-terminal) (Homo sapiens, UniProt O75676).
T5 construct: Kin.Dom.2-C-terminal
T5 sequence (O75676 whole entry): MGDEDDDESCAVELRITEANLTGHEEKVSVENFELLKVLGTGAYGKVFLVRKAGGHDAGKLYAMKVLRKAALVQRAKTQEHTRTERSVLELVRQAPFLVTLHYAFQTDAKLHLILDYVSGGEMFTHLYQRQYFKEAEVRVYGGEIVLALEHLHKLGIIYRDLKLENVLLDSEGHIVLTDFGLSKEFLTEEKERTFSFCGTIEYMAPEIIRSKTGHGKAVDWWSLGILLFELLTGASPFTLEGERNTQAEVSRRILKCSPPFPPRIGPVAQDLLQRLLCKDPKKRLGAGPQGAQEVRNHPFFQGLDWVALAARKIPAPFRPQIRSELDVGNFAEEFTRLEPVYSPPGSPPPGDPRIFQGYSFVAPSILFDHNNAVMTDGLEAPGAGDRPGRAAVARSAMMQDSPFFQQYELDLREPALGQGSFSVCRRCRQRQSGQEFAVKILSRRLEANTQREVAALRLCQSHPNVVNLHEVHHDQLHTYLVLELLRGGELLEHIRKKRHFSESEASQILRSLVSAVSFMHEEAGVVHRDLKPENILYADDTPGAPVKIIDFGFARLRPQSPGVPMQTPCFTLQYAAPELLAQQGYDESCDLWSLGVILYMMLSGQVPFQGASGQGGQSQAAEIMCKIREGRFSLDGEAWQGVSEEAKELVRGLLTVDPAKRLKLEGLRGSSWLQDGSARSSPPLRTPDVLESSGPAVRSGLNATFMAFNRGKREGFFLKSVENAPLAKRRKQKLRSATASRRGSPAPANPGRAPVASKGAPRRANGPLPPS
Here is the method:
as §1

For a further test, the target named is SRPK3 (Homo sapiens, UniProt Q9UPE1). Here is the method:
as §1

For the next test, the target named is TNNI3K (Homo sapiens, UniProt Q59H18). Here is the method:
as §1

Sequence of TNNI3K (Q59H18 whole entry): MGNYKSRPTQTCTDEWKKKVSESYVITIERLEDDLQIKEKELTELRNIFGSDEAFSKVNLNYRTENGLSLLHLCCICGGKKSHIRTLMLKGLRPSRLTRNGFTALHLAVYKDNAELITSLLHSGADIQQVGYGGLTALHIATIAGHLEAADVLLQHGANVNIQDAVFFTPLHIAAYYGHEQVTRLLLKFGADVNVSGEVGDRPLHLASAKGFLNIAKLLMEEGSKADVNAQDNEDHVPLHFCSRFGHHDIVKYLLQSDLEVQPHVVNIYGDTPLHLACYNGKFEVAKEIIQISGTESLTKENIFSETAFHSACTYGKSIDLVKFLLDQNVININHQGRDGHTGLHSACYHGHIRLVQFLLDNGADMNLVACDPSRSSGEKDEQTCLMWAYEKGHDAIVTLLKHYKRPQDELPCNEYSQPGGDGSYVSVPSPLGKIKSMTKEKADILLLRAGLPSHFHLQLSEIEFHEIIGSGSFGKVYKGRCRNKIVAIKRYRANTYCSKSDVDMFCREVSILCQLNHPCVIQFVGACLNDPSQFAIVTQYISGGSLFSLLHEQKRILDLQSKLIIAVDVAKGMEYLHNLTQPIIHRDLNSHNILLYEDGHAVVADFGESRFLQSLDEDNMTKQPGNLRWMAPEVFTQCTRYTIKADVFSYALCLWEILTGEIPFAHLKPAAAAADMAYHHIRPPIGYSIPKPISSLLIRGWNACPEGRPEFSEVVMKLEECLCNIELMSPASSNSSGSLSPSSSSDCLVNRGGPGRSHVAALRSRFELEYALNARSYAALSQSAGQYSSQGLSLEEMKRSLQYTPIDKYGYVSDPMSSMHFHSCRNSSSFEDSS
Sequence of NEK10 (Q6ZWH5 whole entry): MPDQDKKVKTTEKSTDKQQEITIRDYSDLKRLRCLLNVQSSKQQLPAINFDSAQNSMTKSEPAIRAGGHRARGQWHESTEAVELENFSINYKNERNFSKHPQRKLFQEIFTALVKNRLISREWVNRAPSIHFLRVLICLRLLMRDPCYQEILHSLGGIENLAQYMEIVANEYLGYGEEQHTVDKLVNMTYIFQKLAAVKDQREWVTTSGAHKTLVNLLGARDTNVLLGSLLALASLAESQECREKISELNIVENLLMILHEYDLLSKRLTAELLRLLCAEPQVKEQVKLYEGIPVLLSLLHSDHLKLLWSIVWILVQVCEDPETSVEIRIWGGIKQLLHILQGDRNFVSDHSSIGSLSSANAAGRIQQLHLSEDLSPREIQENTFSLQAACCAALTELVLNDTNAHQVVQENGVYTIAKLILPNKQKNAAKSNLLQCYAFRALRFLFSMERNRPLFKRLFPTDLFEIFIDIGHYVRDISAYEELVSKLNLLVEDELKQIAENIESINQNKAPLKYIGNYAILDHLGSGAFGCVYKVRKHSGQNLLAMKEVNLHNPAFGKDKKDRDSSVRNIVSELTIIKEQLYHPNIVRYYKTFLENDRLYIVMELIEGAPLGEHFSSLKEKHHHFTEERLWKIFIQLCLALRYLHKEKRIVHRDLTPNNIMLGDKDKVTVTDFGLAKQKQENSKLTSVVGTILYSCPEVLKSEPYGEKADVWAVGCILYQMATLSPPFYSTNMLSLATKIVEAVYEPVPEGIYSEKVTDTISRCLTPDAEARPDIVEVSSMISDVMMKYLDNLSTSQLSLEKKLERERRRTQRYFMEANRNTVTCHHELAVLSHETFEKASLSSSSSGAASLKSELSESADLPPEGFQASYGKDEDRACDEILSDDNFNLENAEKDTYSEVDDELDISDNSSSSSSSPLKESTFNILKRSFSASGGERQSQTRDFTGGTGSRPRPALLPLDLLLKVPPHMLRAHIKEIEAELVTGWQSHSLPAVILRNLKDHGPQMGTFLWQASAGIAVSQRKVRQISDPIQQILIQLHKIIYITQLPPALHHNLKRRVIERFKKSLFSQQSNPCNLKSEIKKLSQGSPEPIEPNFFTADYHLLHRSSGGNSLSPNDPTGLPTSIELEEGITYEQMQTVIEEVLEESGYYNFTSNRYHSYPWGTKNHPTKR
Sequence of PIK3CA(Q546K) (P42336 whole entry Q546K): as the sequence (P42336 whole entry M1043I) above, with Q546K, I1043M counted along it
Sequence of CAMK4 (Q16566 whole entry): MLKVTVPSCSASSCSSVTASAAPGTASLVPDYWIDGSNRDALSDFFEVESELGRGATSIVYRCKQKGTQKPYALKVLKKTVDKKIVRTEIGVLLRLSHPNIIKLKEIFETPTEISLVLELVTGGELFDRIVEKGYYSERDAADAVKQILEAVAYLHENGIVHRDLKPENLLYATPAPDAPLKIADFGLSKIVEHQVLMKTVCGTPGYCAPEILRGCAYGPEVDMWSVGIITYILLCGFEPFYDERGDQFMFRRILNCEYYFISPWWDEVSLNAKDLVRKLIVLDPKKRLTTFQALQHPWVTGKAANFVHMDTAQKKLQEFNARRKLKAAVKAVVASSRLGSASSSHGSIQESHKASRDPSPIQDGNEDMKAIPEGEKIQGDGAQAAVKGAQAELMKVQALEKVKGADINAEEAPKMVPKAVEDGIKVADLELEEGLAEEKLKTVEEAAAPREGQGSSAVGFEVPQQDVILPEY
Sequence of PAK3 (O75914 whole entry): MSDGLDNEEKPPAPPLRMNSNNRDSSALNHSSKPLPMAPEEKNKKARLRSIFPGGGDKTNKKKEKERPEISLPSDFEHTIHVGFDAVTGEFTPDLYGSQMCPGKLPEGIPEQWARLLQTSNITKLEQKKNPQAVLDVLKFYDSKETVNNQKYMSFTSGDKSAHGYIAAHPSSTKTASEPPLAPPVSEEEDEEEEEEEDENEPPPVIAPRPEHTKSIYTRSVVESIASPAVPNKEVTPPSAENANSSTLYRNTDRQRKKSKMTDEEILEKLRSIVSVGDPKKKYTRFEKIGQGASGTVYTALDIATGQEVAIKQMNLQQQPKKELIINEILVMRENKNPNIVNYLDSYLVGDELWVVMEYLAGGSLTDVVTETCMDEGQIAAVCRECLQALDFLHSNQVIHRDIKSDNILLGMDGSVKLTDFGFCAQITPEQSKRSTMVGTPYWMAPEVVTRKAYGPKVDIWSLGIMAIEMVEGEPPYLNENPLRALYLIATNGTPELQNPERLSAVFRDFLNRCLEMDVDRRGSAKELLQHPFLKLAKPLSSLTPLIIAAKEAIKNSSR

On to `Cc1ncccc1Oc1sc(C(N)=O)c2c1-c1c(cnn1C)CC2` [T-474, 1-methyl-8-((2-methylpyridin-3-yl)oxy)-4,5-dihydro-1H-thieno[3,4-g]indazole-6-carboxamide], for which the remaining binding at 0.3 µM amounted to 83% in test [1]; 82% on BMX; 97% on CAMK2A; 100% at CAMK4; 98% on CDK2; 9.8% at CDK8. The remaining binding at 0.3 µM on DDR2, at LATS2, on LCK, on MAP3K3, at MEK3 and at MEK5 was 100% in each case. For the same compound, the remaining binding at 0.3 µM on NEK10 amounted to 100%; at PAK3, 100%; at PFCDPK1(P.falciparum), 100%; on PIK3CA(M1043I), 100%; on PIK3CA(Q546K) it was 100%; on PRKCI, 77%. Besides, the remaining binding at 0.3 µM at PRKG2 came out at 48%; in test [2] it was 95%; on SRPK3, 100%; at TNNI3K, 95%.

As to `O=C(/C=C/c1cnccc1-c1ccc(F)cc1)Nc1ccc(CCc2nnco2)cc1` [T-418, (2E)-3-(4-(4-fluorophenyl)pyridin-3-yl)-N-(4-(2-(1,3,4-oxadiazol-2-yl)ethyl)phenyl)acrylamide], the remaining binding at 0.3 µM in [1] (sheet T-418) was 83%; on BMX (sheet T-418), 100%; on CAMK2A (sheet T-418) it was 96%; on CAMK4 (sheet T-418) it was 78%; at CDK2 (sheet T-418), 92%; on CDK8 (sheet T-418), 48%. Also, the remaining binding at 0.3 µM on DDR2 (sheet T-418) came out at 100%; on LATS2 (sheet T-418), 100%; at LCK (sheet T-418) it was 98%; at MAP3K3 (sheet T-418), 94%; at MEK3 (sheet T-418) it was 100%; on MEK5 (sheet T-418) it was 100%. Besides, the remaining binding at 0.3 µM on NEK10 (sheet T-418) was 100%; on PAK3 (sheet T-418), 93%; on PFCDPK1(P.falciparum) (sheet T-418), 100%; on PIK3CA(M1043I) (sheet T-418) it was 100%; on PIK3CA(Q546K) (sheet T-418), 100%; at PRKCI (sheet T-418) it was 70%. The remaining binding at 0.3 µM at PRKG2 (sheet T-418) turned out to be 49%; in test [2] (sheet T-418) it was 86%; on SRPK3 (sheet T-418), 100%; at TNNI3K (sheet T-418) it was 100%.
